Experimental data taken from patent US20060246104A1, “Stable rgd peptidomimetic composition” (priority 2003, published 2006).

Key:
3T3 fibroblasts = assay: Cell adhesion assay (cell area coverage on surface-immobilized substrates); type: cell-based; conditions: substance surface-immobilized on tissue culture plastic; 3T3 cells, 24 hrs; relative to untreated tissue culture plastic
Excerpt: For this study, we immobilized AAGPAHA and the peptide GRGDSP on dextran-coated tissue culture plastic dishes in a series of steps shown in FIGS. 2-4. Multi-well cell culture dishes were first surface-aminated by adsorbing poly-lysine (FIG. 2). Dextran was then immobilized on these surfaces (FIG. 3) using reported methods (Massia, Biomaterials 21:2753-61, 2000). AAGPAHA and GRGDSP were then surface-immobilized on dextran-coated tissue culture plastic (FIG. 4) using reported methods (Massia, J Biomed Mater Res 56:390-99, 2001). Dextran substrates were activated by oxidation of the glucose subunits (Glc) with sodium metaperiodate to convert Glc subunits to […]. […]
Cell area coverage assays were performed to assess the extent of 3T3 cell adhesion and spreading on all substrates. […] Following incubation, samples were fixed (3.8% formaldehyde in phosphate buffered saline (PBS) for 5 min. and stained with 0.1% aqueous toluidine blue (5 min). Stained cells were then examined using phase contrast or stereomicroscopy (Leica) at 100× magnification. Three random 100× fields were selected for each substrate for analysis. The extent of cell adhesion was determined for each captured digital image by calculating a percentage of cell area coverage using digital image analysis software. Final data were presented as a percentage of control adhesion. […]

[1] = system: 3T3 cell adhesion and spreading (integrin-mediated); assay: Cell adhesion inhibition assay (soluble competitor against grafted substrate); type: cell-based; conditions: soluble GRGDSP 1 mg/mL, 3T3 cells, 24 hrs
Method: The cell line utilized in these studies were 3T3 fibroblasts (ATCC # CRL-6476, Manassas, Va.). 3T3 cells were maintained in Dulbecco's modified Eagle medium (DMEM) with 10% fetal bovine serum (FBS) at 37° C. in saturated humidity. All cell culture media and reagents were obtained from Life Technologies, Inc. (Rockville, Md.).
Cell area coverage assays were performed to assess the extent of 3T3 cell adhesion and spreading on all substrates. 3T3 cells were seeded on 24-well culture dishes (15,000 cells/well) and incubated for 24 hrs. Following incubation, samples were fixed (3.8% formaldehyde in phosphate buffered saline (PBS) for 5 min. and stained with 0.1% aqueous toluidine blue (5 min). Stained cells were then examined using phase contrast or stereomicroscopy (Leica) at 100× magnification. Three random 100× fields were selected for each substrate for analysis. The extent of cell adhesion was determined for each captured digital image by calculating a percentage of cell area coverage using digital image analysis software. Final data were presented as a percentage of control adhesion.
The percentage of control adhesion was calculated by multiplying the ratio of % area coverage on dextran-coated, peptide-grafted, or peptidomimetic-grafted substrates to % cell area coverage on untreated tissue culture plastic by 100. […]

trypsin = assay: Enzymatic stability in trypsin solution, MALDI-TOF mass spectrometry; type: in vitro ADME; conditions: for decrease in mass peak size after treatment with trypsin / mass peak intensity after trypsin exposure / degradation after prolonged trypsin exposure / mass peak intensity after prolonged trypsin exposure: 0.05 mM trypsin; for decrease in mass peak size after treatment with trypsin / mass peak intensity after trypsin exposure / mass peak intensity before trypsin exposure: 1 hr, 37° C.; for mass peak intensity after trypsin exposure / mass peak intensity before trypsin exposure: HEPES pH 8, 0.4 mM; for degradation after prolonged trypsin exposure / mass peak intensity after prolonged trypsin exposure / mass peak intensity before prolonged trypsin exposure: 16 hrs, room temperature; for mass peak intensity before trypsin exposure / mass peak intensity before prolonged trypsin exposure: control without trypsin
Method: GRGDSP and AAGPAHA were mixed with trypsin solution in HEPES buffer (10 mM, pH=8) to a final solution of 0.4 mM peptide and 0.05 mM (0.12%) trypsin and incubated at 37° C. for 1 hr. In a control experiment, both peptides were dissolved in the same buffer without trypsin at the same final concentrations and incubated at 37° C. for 1 hr. Similarly, in another set of experiments, the same samples were incubated at room temperature overnight. At the end of the incubation period, trypsin activity was quenched by adding inhibitor; and the samples were analyzed by MALDI-TOF mass spectrometry to assess the extent of degradation.

Molecule | percentage of control adhesion (cell area coverage) (3T3 fibroblasts) | percentage of control adhesion on surface-immobilized AAGPAHA in presence of soluble compound [1] | percentage of control adhesion on surface-immobilized AAGPAHA in presence of soluble compound ([1]; listed as RGD peptide) | decrease in mass peak size after treatment with trypsin (trypsin) | mass peak intensity after trypsin exposure (trypsin) | degradation after prolonged trypsin exposure (trypsin) | mass peak intensity after prolonged trypsin exposure (trypsin) | mass peak intensity before trypsin exposure (trypsin) | mass peak intensity before prolonged trypsin exposure (trypsin)
GRGDSP | 124.3±4.1 % control | 5.7%±6.9% | decreased cell coverage | 73% | 4.0×10^3 | about 98% | 3.0×10^2 | 1.5×10^4 | 1.5×10^4
N=C(N)NCCCC(N)C(=O)NCCCCC(N)C(=O)O (stereo not shown) [AAGPAHA, 2-amino-6-[(2-amino-5{guanidino}pentanoyl)amino]hexanoic acid] | 105.9±12.8 % control |  |  | no significant change | the same | highly resistant to trypsin-mediated degradation | the same | 1.2×10^4 | 1.2×10^4
